These are literature values, as cited in patent US20030060663A1, “Novel therapeutic agents for macromolecular structures” (priority 1998, published 2003).

Where two headings read alike, the source gives them in different places.

Series [1] has as its system HRV-9. Particulars: against HRV-9.
Series [2] deals with mitotic microtubules. Particulars: intact tectal plates from mouse embryos; blockade of cells at metaphase.
Series [3] concerns axonal microtubules. Particulars: intact tectal plates from mouse embryos.
The subject of series [4] is fungal pathogens. Particulars: on average; for MIC values, fold higher than amphotericin B: range of fungal pathogens.
In series [5] the test system is yeasts. Particulars: relative to amphotericin B.
The subject of series [6] is coxsackievirus A21. Particulars: p.o. administration, patients challenged with coxsackievirus A21.
In series [7] the test system is HRV (human rhinovirus)-16, 39, and 50. The conditions noted are these: administered orally to patients infected with HRV-16, 39, and 50.
The subject of series [8] is Microsporum, Epidermophyton and Trichophyton. Particulars: various species of Microsporum.
The conditions of series [9]: animal models.
The conditions of series [10]: clinical trials.

As to `COc1ccc(N2CCN(c3cccc(C)c3)CC2)nn1` [compound C], the prophylactic use entry in [1] is “worked prophylactically”. On to `CC[C@]1(O)C[C@H]2CN(CCc3c([nH]c4ccccc34)[C@@](C(=O)OC)(c3cc4c(cc3OC)N(C=O)[C@H]3[C@@](O)(C(=O)OC)[C@H](OC(C)=O)[C@]5(CC)C=CCN6CC[C@]43[C@@H]65)C2)C1` [vincristine, Vincristine], for which the “concentration at which mitotic microtubule formation is inhibited” value in series [2] is 2 mcM. Further, in [3], the “concentration producing depolymerization of axonal microtubules” value (“concentration producing depolymerization” for short) is reported as 5 mcM. `COC12CC(O)CC(O)C(O)CCC(O)CC(O)CC(=O)OC(C)C(C)C(O)C(C)C=CC=CC=CC=CC=CC=CC=CC(OC3OC(C)C(O)C(N)C3O)CC(O1)C(C(=O)O)C(O)C2` (centres unmarked) [methoxy ketal]: the “MIC values, fold higher than amphotericin B” value in series [4] is on record as 2 fold. For “monovalent adduct of amphotericin B with N,N′-1,6-hexandiyl-bis(maleimide)”, the “MIC values against yeasts, fold higher than amphotericin B” value in [5] was “more than 20 fold”. On to `Cc1cc(CCCCCOc2c(Cl)cc(C3N=CCO3)cc2Cl)on1` (centres unmarked) [Compound A], for which the “prophylactic effect in clinical trials” value in [6] is given as “prophylactic effect”. Further, the therapeutic effect result in series [7] is on record as “did not demonstrate a therapeutic effect”.

`CCC1=C[C@@H]2CN(C1)Cc1c([nH]c3ccccc13)[C@@](C(=O)OC)(c1cc3c(cc1OC)N(C)[C@H]1[C@@](O)(C(=O)OC)[C@H](OC(C)=O)[C@]4(CC)C=CCN5CC[C@]31[C@@H]54)C2` [vinorelbine, 3′,4′-Didehydro-4′-deoxy-C′-norvincaleukoblastine]: the “concentration at which mitotic microtubule formation is inhibited” value in series [2] is reported as 2 mcM. The “concentration producing depolymerization” value in series [3] was 40 mcM. With `CCCOC12CC(O)CC(O)C(O)CCC(O)CC(O)CC(=O)OC(C)C(C)C(O)C(C)C=CC=CC=CC=CC=CC=CC=CC(OC3OC(C)C(O)C(N)C3O)CC(O1)C(C(=O)O)C(O)C2` (centres unmarked) [n-propyloxy ketal], the “fold less potent in vitro” value in [4] is listed as 10 fold.

Regarding `CC1C=CC=CC=CC=CC=CC=CC=CC(OC2OC(C)C(O)C(N)C2O)CC2OC(OCCO)(CC(O)CC(O)C(O)CCC(O)CC(O)CC(=O)OC(C)C(C)C1O)CC(O)C2C(=O)O` (stereo not drawn) [beta-hydroxyethoxy ketal], the “MIC values, fold higher than amphotericin B” value in series [4] was 2 fold. For the compound `COC1=CC(=O)C[C@@H](C)[C@]12Oc1c(Cl)c(OC)cc(OC)c1C2=O` [Griseofulvin], the “in vitro activity against fungi” value in series [8] was “fungistatic”. On to `COC(=O)C1C(O)CC2(O)CC(O)CC(O)C(O)CCC(O)CC(O)CC(=O)OC(C)C(C)C(O)C(C)C=CC=CC=CC=CC=CC=CC=CC(OC3OC(C)C(O)C(NC(=O)C(N)CCCN)C3O)CC1O2` (centres unmarked) [N-ornithyl amphotericin B methyl ester], for which the “nephrotoxicity compared with amphotericin B” value in series [9] is “less nephrotoxic”. Regarding `COC(=O)[C@H]1[C@@H]2C[C@@H](O[C@@H]3O[C@H](C)[C@@H](O)[C@H](N)[C@@H]3O)/C=C/C=C/C=C/C=C/C=C/C=C/C=C/[C@H](C)[C@@H](O)[C@@H](C)[C@H](C)OC(=O)C[C@H](O)C[C@H](O)CC[C@@H](O)[C@H](O)C[C@H](O)C[C@](O)(C[C@@H]1O)O2` [Amphotericin B methyl ester], the “nephrotoxicity compared with amphotericin B” value in series [9] and in series [10] was “less nephrotoxic” each time.

As for `CC[C@]1(O)C[C@@H]2CN(CCc3c([nH]c4ccccc34)[C@@](C(=O)OC)(c3cc4c(cc3OC)N(C)[C@H]3[C@@](O)(C(=O)OC)[C@H](OC(C)=O)[C@]5(CC)C=CCN6CC[C@]43[C@@H]65)C2)C1` [vinblastine], the “concentration at which mitotic microtubule formation is inhibited” value in series [2] was 2 mcM. For the same compound, the “concentration producing depolymerization” value in [3] was 30 mcM.
